Experimental data published in PubChem BioAssay (NCI).
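The compound was tested at five concentrations on cells cultured in 96-well plates, with a 48-hour exposure period. TGI is the concentration that stops growth completely.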

Tests used:
Test in all cases: inhibition of tumour cell growth, NCI panel, 48 h
CAKI-1 renal = system: CAKI-1 renal
COLO 205 colon = system: COLO 205 colon
HCC-2998 colon = system: HCC-2998 colon
HCT-116 colon = system: HCT-116 colon
HL-60(TB) leukemia = system: HL-60(TB) leukemia
M14 melanoma = system: M14 melanoma
MDA-MB-435 = system: MDA-MB-435
NCI-H226 lung = system: NCI-H226 lung
NCI-H23 lung = system: NCI-H23 lung
NCI/ADR-RES ovarian = system: NCI/ADR-RES ovarian
OVCAR-3 ovarian = system: OVCAR-3 ovarian
PC-3 prostate = system: PC-3 prostate
RXF 393 renal = system: RXF 393 renal
SF-295 CNS = system: SF-295 CNS
SF-539 CNS = system: SF-539 CNS
SK-MEL-2 melanoma = system: SK-MEL-2 melanoma
SK-MEL-28 melanoma = system: SK-MEL-28 melanoma
SNB-19 CNS = system: SNB-19 CNS
SR leukemia = system: SR leukemia
T-47D breast = system: T-47D breast

| SMILES | TGI (CAKI-1 renal) [µM] | TGI (COLO 205 colon) [µM] | TGI (HCC-2998 colon) [µM] | TGI (HCT-116 colon) [µM] | TGI (HL-60(TB) leukemia) [µM] | TGI (M14 melanoma) [µM] | TGI (MDA-MB-435) [µM] | TGI (NCI-H226 lung) [µM] | TGI (NCI-H23 lung) [µM] | TGI (NCI/ADR-RES ovarian) [µM] | TGI (OVCAR-3 ovarian) [µM] | TGI (PC-3 prostate) [µM] | TGI (RXF 393 renal) [µM] | TGI (SF-295 CNS) [µM] | TGI (SF-539 CNS) [µM] | TGI (SK-MEL-2 melanoma) [µM] | TGI (SK-MEL-28 melanoma) [µM] | TGI (SNB-19 CNS) [µM] | TGI (SR leukemia) [µM] | TGI (T-47D breast) [µM] |
| --- | --- | --- | --- | --- | --- | --- | --- | --- | --- | --- | --- | --- | --- | --- | --- | --- | --- | --- | --- | --- |
| CCOC(=O)C(CCN1CCC2(CC1)C(=O)N(C)CN2c1ccccc1)C(=O)OCC | > 100 | > 100 | > 100 | > 100 | > 100 | > 100 | > 100 | > 100 | > 100 | > 100 | > 100 | > 100 | > 100 | > 100 | > 100 | > 100 | > 100 | > 100 | > 100 | > 100 |
| c1ccc2c(c1)SCCC2NC1=NCCO1 (stereo not given) | > 100 | > 100 | > 100 | > 100 | > 100 | > 100 | > 100 | > 100 | > 100 | > 100 | > 100 | > 100 | > 100 | > 100 | > 100 | > 100 | > 100 | > 100 | > 100 | > 100 |
| [N-]=[N+]=NCc1nc(N)c2c3c(sc2n1)CCCC3 | 8.32 | > 39.3 | 4.76 | 12 | > 100 | 17.7 | 32 | 5.97 | 3.78 | > 22.2 | 11.8 | 6.72 | 19.3 | 27.9 | 3.46 | 27.9 | 36.3 | 21.4 | > 100 | 63.3 |
| CC(=O)NC1=N/C(=C\c2ccc(Cl)cc2)C(=O)N1/C=C1\C(=O)Oc2ccccc2C1=O | > 100 | > 100 | > 100 | > 100 | > 100 | > 100 | > 100 | > 100 | > 100 | > 100 | > 100 | > 100 | > 100 | > 100 | > 100 | > 100 | > 100 | > 100 | > 100 | > 100 |
| O=C1c2ccccc2C(=O)c2c1nc1ccccc1c2-c1cncc(-c2c3c(nc4ccccc24)C(=O)c2ccccc2C3=O)c1 | 71.1 | 19.8 | 49.7 | 24.7 | 18.3 | 32.4 | 3.96 | 43.6 | 2.62 | 51 | > 75.6 | > 100 | > 100 | 22.8 | 60.5 | 44.6 | 28.7 | > 82.7 | 7.9 | 57.6 |
| O=C(N(O)c1ccccc1Cl)C(O)(c1ccccc1)c1ccccc1 | > 100 | > 100 | > 100 | > 100 | 64.7 | > 100 | > 100 | > 100 | > 100 | > 100 | > 100 | > 100 | > 100 | > 100 | > 100 | > 100 | > 100 | > 100 | 49.9 | > 100 |
| CC1=C(/C=C/C(C)=C/C=C/C(C)=C/C(=O)OC2CC(n3cc(F)c(=O)[nH]c3=O)OC2CO)C(C)(C)CCC1 (stereo not given) | 16.9 | 25.8 | 26.8 | 14.4 | 7.37 | 17.4 | 25.2 | 52.7 | 20.7 | 24.9 | 22.5 | 20.8 | 24 | 14.3 | 0.54 | 55.5 | 24.6 | 23.6 | > 47.2 | 21.2 |
| O=C(O)CCSC(CC1(c2ccc(Cl)cc2)NC(=O)CCS1)c1ccccc1 (stereo not given) | 37.3 | > 60.6 | 39.6 | 17.4 | > 100 | 50.9 | 29.8 | 40.8 | 50.1 | 49.3 | 41.5 | 37.3 | > 54.8 | 43.2 | 27.3 | 38.7 | 37.7 | > 56.1 | > 100 | > 60 |
| C=C1CC/C=C(\C)CCC[C@H](C)[C@@H](O)[C@@H]2OC(=O)C(=C)[C@@H]2C[C@H]1O | 17 | 29.9 | 50.5 | 30.5 | > 100 | 28.4 | 17.3 | 11.5 | 26.8 | 27.2 | 22.6 | 23.1 | 22.2 | 32.9 | 6.94 | 27 | 22.2 | 28.7 | > 100 | 47.1 |
| COC1=C(Br)[C@H](O)[C@@]2(C=C1Br)CC(C(=O)NCCCOc1c(Br)cc(C(O)CNC(C)=O)cc1Br)=NO2 (stereo not given in full) | > 10 | > 10 | > 10 | > 10 | > 10 | > 10 | 5.12 | > 10 | > 10 | > 10 | > 10 | > 10 | > 10 | > 10 | > 10 | > 10 | > 10 | > 10 | 1.77 | > 10 |
| CC(Oc1ccc(Cl)cc1Cl)C(=O)NN1C(=O)CSC1c1ccccc1 (stereo not given) | 40 | > 100 | > 100 | > 100 | 77.9 | > 100 | > 100 | 64.1 | > 100 | > 100 | > 100 | > 100 | > 100 | > 100 | > 100 | > 100 | > 100 | > 100 | 19.2 | > 100 |
| COc1ccc(/C=C2\c3cc(OC)c(OC)cc3CCN2C(=O)c2ccccc2)cc1OC | > 100 | > 100 | > 100 | > 100 | 65 | > 100 | 49 | > 100 | > 100 | 76.4 | > 100 | > 100 | > 100 | > 100 | > 100 | > 100 | > 100 | > 100 | > 100 | 86.8 |
| CC(=O)OCC1OC(n2c(C)cc(C)c(C#N)c2=S)C(OC(C)=O)C(OC(C)=O)C1OC(C)=O (stereo not given) | > 100 | > 100 | > 100 | > 100 | > 100 | > 100 | > 100 | > 100 | > 100 | > 100 | > 100 | > 100 | > 100 | > 100 | > 100 | > 100 | > 100 | > 100 | > 100 | > 100 |
| COc1ccc(C[C@H]2COC(=O)[C@@H]2Cc2cccc(Br)c2)cc1OC | 30 | 28.7 | 66.4 | > 100 | 38.6 | 27.8 | 56.9 | > 100 | > 100 | > 100 | 60.4 | 53.6 | 77.6 | > 100 | 41.4 | 73.5 | 68.4 | > 100 | 32.8 | > 100 |
| O=C1NC(N/N=C\C(O)C(O)C(O)C(O)CO)=N/C1=C/c1ccc(Cl)cc1 (stereo not given) | > 100 | > 100 | > 100 | > 100 | > 100 | > 100 | > 100 | > 100 | > 100 | > 100 | > 100 | > 100 | > 100 | > 100 | > 100 | > 100 | > 100 | > 100 | > 100 | > 100 |
| O=c1nc(N2CCNCC2)oc2cc(Cl)oc(=O)c12 | 9.49 | 19 | 25.1 | 7.53 | 8.47 | 7.94 | 18.5 | 37.9 | 27 | 25.8 | 15.2 | 19.9 | 24.8 | 20.9 | 11.8 | 29.1 | 15.8 | 36.7 | 4.41 | > 21.7 |
| NCC(=O)Nc1ccc(S(=O)(=O)O)c2cc(S(=O)(=O)O)cc(S(=O)(=O)O)c12 | > 100 | > 100 | > 100 | > 100 | > 100 | > 100 | > 100 | > 100 | > 100 | > 100 | > 100 | > 100 | > 100 | > 100 | > 100 | > 100 | > 100 | > 100 | > 100 | > 100 |
| O=C(NNC(=O)c1ccccc1O)c1cccc(Br)c1 | > 100 | > 100 | > 100 | > 100 | > 100 | > 100 | > 100 | > 100 | > 100 | > 100 | > 100 | > 100 | > 100 | > 100 | > 100 | > 100 | > 100 | > 100 | > 100 | > 100 |
| COc1ccc(N=NC(=O)NC(CC(C)C)C(=O)NC(C)C(=O)O)cc1 (stereo not given) | > 100 | 16.3 | > 100 | > 100 | > 100 | > 100 | > 100 | > 100 | > 100 | > 100 | > 100 | > 100 | > 100 | > 100 | 14.4 | > 100 | > 100 | > 100 | > 100 | > 45.3 |
| CCOC(=O)c1nc2cc(F)c(N3CCOCC3)cc2[nH]c1=O | > 100 | > 100 | > 100 | > 100 | > 100 | > 100 | > 100 | > 100 | > 100 | > 100 | > 100 | > 100 | > 100 | > 100 | > 100 | > 100 | > 100 | > 100 | > 100 | > 100 |
| Cc1c2cccc-2c(OCCO)cc2c3ccccc3n(C)c12 | 26.6 | 3.24 | 14.6 | 12.8 | 7.19 | 12.2 | 25.2 | 24.2 | > 100 | > 100 | 5.56 | 11.5 | > 100 | 16.9 | 5.92 | 12.8 | 21.4 | 18.6 | 6.12 | > 100 |
| COc1cccc2nc3c(C(=O)NCCN(C)C)cccc3cc12 | 4.18 | 2.55 | 12.3 | 14.9 | 4.48 | 4.37 | 9.41 | 4.15 | 6.05 | 9.17 | 12.3 | 10.2 | 9.74 | 10.8 | 7.9 | 12.7 | 9.85 | 15.9 | 3.15 | 16.7 |
| [N-]=[N+]=CC(=O)OC1Cc2ccccc2C1 | > 35.3 | > 100 | > 100 | > 100 | > 100 | > 100 | > 100 | > 100 | > 100 | > 100 | > 100 | > 100 | > 100 | > 100 | > 100 | > 100 | > 100 | > 100 | > 100 | > 100 |
